Measurements as given in patent US9845291B2, “Estrogen receptor modulators and uses thereof” (Genentech, Inc., priority 2014, dated 2017).

Target: estrogen receptor alpha (ESR1) (Homo sapiens, UniProt P03372)
Assay: cell-based
Details: for ER-alpha MCF7 HCS Sinf: MCF7 breast cancer cells, 4 hours, plateau of the maximal effect, DMSO and Fulvestrant define 0% and 100% changes in ESR1
Method: Where more than one name is associated with a Formula I compound or intermediate, the chemical structure shall define the compound.
Cell plates were incubated at 37° C., for 4 hours. Fixation and permeabilization were carried out using a Biotek EL406 plate washer and dispenser as follows. […] Samples were incubated 30 minutes. Well contents was aspirated and 50 ul/well of Phosphate Buffered Saline (PBS) containing 0.5% w/v bovine serum albumen, 0.5% v/v Triton X-100 (Antibody Dilution Buffer) was added to each well. Samples were incubated for 30 minutes. Well contents were aspirated and washed 3 times with 100 ul/well of PBS. Immunofluorescence staining of estrogen receptor alpha (ESR1) was carried out using a Biotek EL406 plate washer and dispenser as follows. […] Samples were incubated for 2 hours at room temperature. Samples were washed 4 times with 100 ul/well of PBS. […] Samples were incubated for 2 hours at room temperature. Samples were washed 3 times with 100 ul/well of PBS using a Biotek EL406. Quantitative fluorescence imaging of ESR1 was carried out using a Cellomics Arrayscan V (Thermo). […] Channel 1 (DNA stain) was used to define the nuclear region (Circ). […] Data analysis was carried out using Genedata Screener Software, with DMSO and 5 nM Fulvestrant treated samples being used to define the 0% and 100% changes in ESR1. The “Robust Fit” method was used to define the inflexion point of curve (EC50) and the plateau of the maximal effect (Sin f).

estrogen receptor alpha (ESR1), sequence (P03372 whole entry): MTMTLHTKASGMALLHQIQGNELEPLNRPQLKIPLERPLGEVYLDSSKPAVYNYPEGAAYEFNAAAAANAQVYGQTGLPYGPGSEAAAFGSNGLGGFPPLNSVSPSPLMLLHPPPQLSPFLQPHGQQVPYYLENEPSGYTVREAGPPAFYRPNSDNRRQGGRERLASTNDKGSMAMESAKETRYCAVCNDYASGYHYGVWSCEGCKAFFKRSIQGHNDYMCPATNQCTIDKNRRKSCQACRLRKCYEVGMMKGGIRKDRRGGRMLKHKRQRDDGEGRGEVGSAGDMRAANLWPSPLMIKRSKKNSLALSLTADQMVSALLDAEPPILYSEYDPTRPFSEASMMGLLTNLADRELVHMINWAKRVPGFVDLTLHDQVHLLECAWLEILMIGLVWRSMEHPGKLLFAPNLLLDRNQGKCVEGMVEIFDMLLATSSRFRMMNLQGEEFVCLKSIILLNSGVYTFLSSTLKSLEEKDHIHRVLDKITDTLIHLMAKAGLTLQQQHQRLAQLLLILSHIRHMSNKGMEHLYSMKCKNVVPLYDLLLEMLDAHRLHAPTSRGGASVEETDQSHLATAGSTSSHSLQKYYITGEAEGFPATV

Structure (SMILES) | EC50 | ER-alpha MCF7 HCS Sinf
C[C@@H](COc1ccc([C@@H]2Oc3ccc(O)cc3S[C@@H]2c2ccc(O)cc2)cc1)N1CC[C@@H](CF)C1 (mixture of isomers) [Example 30, 2-(4-((S)-2-((R)-3-(Fluoromethyl)pyrrolidin-1-yl)propoxy)phenyl)-3-(4-hydroxyphenyl)-2,3-dihydrobenzo[b][1,4]oxathiin-6-ol] | 1.1 nM | −99%
Oc1ccc([C@H]2Sc3cc(O)ccc3O[C@H]2c2ccc(OCCN3CC[C@@H](CF)C3)cc2)cc1 (racemic) [Example 28, 2-(4-(2-((R)-3-(Fluoromethyl)pyrrolidin-1-yl)ethoxy)phenyl)-3-(4-hydroxyphenyl)-2,3-dihydrobenzo[b][1,4]oxathiin-6-ol] | 1 nM | −97%
Oc1ccc([C@H]2Sc3cc(O)ccc3O[C@H]2c2ccc(OCCN3CC(CF)C3)cc2)cc1 (racemic) [Example 29, 2-(4-(2-(3-(Fluoromethyl)azetidin-1-yl)ethoxy)phenyl)-3-(4-hydroxyphenyl)-2,3-dihydrobenzo[b][1,4]oxathiin-6-ol] | 0.55 nM | −101%
Oc1cccc([C@H]2Sc3cc(O)ccc3O[C@H]2c2ccc(OCCN3CC(CF)C3)cc2)c1 (racemic) [Example 31, 2-(4-(2-(3-(Fluoromethyl)azetidin-1-yl)ethoxy)phenyl)-3-(3-hydroxyphenyl)-2,3-dihydrobenzo[b][1,4]oxathiin-6-ol] | 1.1 nM | −97%
Oc1ccc2c(c1)CC[C@H](c1ccccc1)[C@@H]2c1ccc(OCCN2CC(CF)C2)cc1 (racemic) [Example 34, cis-5-(4-(2-(3-(Fluoromethyl)azetidin-1-yl)ethoxy)phenyl)-6-phenyl-5,6,7,8-tetrahydronaphthalen-2-ol] | 0.016 nM | −99.3%
Cc1c(-c2ccc(O)cc2)n(Cc2ccc(OCCN3CC(CF)C3)cc2)c2ccc(O)cc12 [Example 1, 1-(4-(2-(3-(Fluoromethyl)azetidin-1-yl)ethoxy)benzyl)-2-(4-hydroxyphenyl)-3-methyl-1H-indol-5-ol] | 0.46 nM | −95%
Cc1c(-c2ccc(O)cc2)n(Cc2ccc(OC[C@H](C)N3CC[C@@H](CF)C3)cc2)c2ccc(O)cc12 [Example 2, 1-(4-((S)-2-((R)-3-(Fluoromethyl)pyrrolidin-1-yl)propoxy)benzyl)-2-(4-hydroxyphenyl)-3-methyl-1H-indol-5-ol] | 1.6 nM | −93%
Cc1c(-c2ccc(F)cc2)n(Cc2ccc(OCCN3CC(CF)C3)cc2)c2ccc(O)cc12 [Example 3, 1-(4-(2-(3-(Fluoromethyl)azetidin-1-yl)ethoxy)benzyl)-2-(4-fluorophenyl)-3-methyl-1H-indol-5-ol] | 5.5 nM | −92%
Cc1c(-c2ccccc2)n(Cc2ccc(OCCN3CC(CF)C3)cc2)c2ccccc12 [Example 4, 1-(4-(2-(3-(Fluoromethyl)azetidin-1-yl)ethoxy)benzyl)-3-methyl-2-phenyl-1H-indole] | 200 nM | −81%
Cc1c(-c2ccc(O)cc2)n(Cc2ccc(OCCN3CC(CF)C3)cc2)c2ccccc12 [Example 5, 4-(1-(4-(2-(3-(Fluoromethyl)azetidin-1-yl)ethoxy)benzyl)-3-methyl-1H-indol-2-yl)phenol] | 65 nM | −93%
Cn1c(-c2ccc(O)cc2)c(C(=O)c2ccc(OCCN3CC(CF)C3)cc2)c2ccc(O)cc21 [Example 6, (4-(2-(3-(Fluoromethyl)azetidin-1-yl)ethoxy)phenyl)(6-hydroxy-2-(4-hydroxyphenyl)-1-methyl-1H-indol-3-yl)methanone] | 550 nM | −50%
CS(=O)(=O)c1ccc(-c2ccc3cc(O)ccc3c2Oc2ccc(OCCN3CC(CF)C3)cc2)cc1 [Example 7, 5-(4-(2-(3-(Fluoromethyl)azetidin-1-yl)ethoxy)phenoxy)-6-(4-(methylsulfonyl)phenyl)naphthalen-2-ol] | 1.6 nM | −95%
CS(=O)(=O)c1ccc(-c2ccc3cc(O)ccc3c2Oc2ccc(OCCN3CC[C@@H](CF)C3)cc2)cc1 [Example 8, (R)-5-(4-(2-(3-(Fluoromethyl)pyrrolidin-1-yl)ethoxy)phenoxy)-6-(4-(methylsulfonyl)phenyl)naphthalen-2-ol] | 0.27 nM | −95%
O=C(c1ccc(OCCN2CC(CF)C2)cc1)c1c(-c2ccc(O)cc2)sc2cc(O)ccc12 [Example 9, (4-(2-(3-(fluoromethyl)azetidin-1-yl)ethoxy)phenyl)(6-hydroxy-2-(4-hydroxyphenyl)benzo[b]thiophen-3-yl)methanone] | 1.1 nM | −97%
O=C(c1ccc(OCCN2CC(CF)C2)cc1)c1c(-c2ccc(F)cc2)sc2cc(O)ccc12 [Example 10, (4-(2-(3-(fluoromethyl)azetidin-1-yl)ethoxy)phenyl)(2-(4-fluorophenyl)-6-hydroxyhenzo[b]thiophen-3-yl)methanone] | 0.45 nM | −96%
Oc1ccc(-c2sc3cc(O)ccc3c2Oc2ccc(OCCN3CC(CF)C3)cc2)cc1 [Example 11, 3-(4-(2-(3-(Fluoromethyl)azetidin-1-yl)ethoxy)phenoxy)-2-(4-hydroxyphenyl)benzo[b]thiophen-6-ol] | 0.13 nM | −94%
COc1ccc(-c2sc3cc(O)ccc3c2Oc2ccc(OC[C@H](C)N3CC[C@@H](CF)C3)cc2)cc1 [Example 12, 3-(4-((S)-2-((R)-3-(Fluoromethyl)pyrrolidin-1-yl)propoxy)phenoxy)-2-(4-methoxyphenyl)benzo [6]thiophen-6-ol] | 310 nM | −50%
CCN(Cc1ccc(OCCN2CC(CF)C2)cc1)c1cc(OC)ccc1C1CCc2cc(O)ccc2C1 (stereo not drawn) [Example 13, 6-(2-(Ethyl(4-(2-(3-(fluoromethyl)azetidin-1-yl)ethoxy)benzyl)amino)-4-methoxyphenyl)-5,6,7,8-tetrahydronaphthalen-2-ol] | 7.5 nM | −55%
Oc1ccc(-c2onc(-c3ccccc3Cl)c2-c2ccc(OCCN3CC(CF)C3)cc2)cc1 [Example 14, 4-(3-(2-Chlorophenyl)-4-(4-(2-(3-(fluoromethyl)azetidin-1-yl)ethoxy)phenyl)isoxazol-5-yl)phenol] | 0.21 nM | −99%
Oc1ccc(-c2onc(-c3ccccc3Cl)c2-c2ccc(OCCN3CC[C@@H](CF)C3)cc2)cc1 [Example 15, (R)-4-(3-(2-Chlorophenyl)-4-(4-(2-(3-(fluoromethyl)pyrrolidin-1-yl)ethoxy)phenyl)isoxazol-5-yl)phenol] | 2.3 nM | −84%
Oc1ccc(-c2snc(-c3ccccc3Cl)c2-c2ccc(OCCN3CC(CF)C3)c(F)c2)cc1 [Example 16, 4-(3-(2-Chloro-phenyl)-4-{3-fluoro-4-[2-(3-fluoromethyl-azetidin-1-yl)-ethoxy]-phenyl}-isothiazol-5-yl)-phenol] |  | −99.2%
O=C(c1ccc(OCCN2CC(CF)C2)c(F)c1)c1c(-c2ccccc2Cl)noc1-c1ccc(O)cc1 [Example 17, [3-(2-Chloro-phenyl)-5-(4-hydroxy-phenyl)-isoxazol-4-yl]-{3-fluoro-4-[2-(3-fluoromethyl-azetidin-1-yl)-ethoxy]-phenyl}-methanone] | 0.3 nM | −102%
Oc1ccc(C(=C2CCCCC2)c2ccc(OCCN3CC(CF)C3)cc2)cc1 [Example 18, 4-(Cyclohexylidene-{4-[2-(3-fluoromethyl-azetidin-1-yl)-ethoxy]-phenyl}-methyl)-phenol] | 12 nM | −89%
CC/C(=C(\c1ccccc1)c1ccc(OCCN2CC[C@@H](CF)C2)cc1)c1ccccc1 [Example 19, (R,Z)-1-(2-(4-(1,2-Diphenylbut-1-en-yl)phenoxy)ethyl)-3-(fluoromethyl)pyrrolidine] | 15 nM | −75%
CC/C(=C(\c1ccccc1)c1ccc(OC[C@H](C)N2CC[C@@H](CF)C2)cc1)c1ccccc1 [Example 20, (R)-1-((S)-1-(4-((Z)-1,2-Diphenylbut-1-en-1-yl)phenoxy)propan-2-yl)-3-(fluoromethyl)pyrrolidine] | 24 nM | −73%
CC/C(=C(\c1ccccc1)c1ccc(OCCN2CC(CF)C2)cc1)c1ccccc1 [Example 21, (Z)-1-(2-(4-(1,2-Diphenylbut-1-en-1-yl)phenoxy)ethyl)-3-(fluoromethyl)azetidine] | 11 nM | −97%
